Laboratory results: US11073509B2, “Assays and methods for determining the responsiveness of an individual subject to a therapeutic agent” (Celcuity Inc., priority 2013, dated 2021)
Read-outs that look alike come from different tables or passages of the source.

Key:
[1] = system: Patient B1 breast cancer cells; assay: CELx Anti-Proliferative test, impedance biosensor CReMS; format: cell-based, human
Method: (§1) The physiologic change of the B1 and B2 cells during the test was measured with an impedance biosensor CReMS and the output from the CReMS is recorded in FIGS. 2A and 2B. The comparison of the CELx test results and the third party clinical reference is recorded in FIG. 2C.
(§2) CReMS, microplate, reagents, and buffers: The CReMS, microplate, reagents, and buffers used in Example 1 are the same as those employed in Example 2, except for the therapeutic agent tested. […] Paclitaxel was purchased from Selleck Chemicals (TX, USA).
(§3) Cells: Breast Cancer cells from Patients B1 and B2 were utilized and handled in the same manner as described in Example 1.
(§4) Procedure: Between 6,000-12,000 cells in each well were seeded onto the impedance microplate containing 120 uL settling media with serum. […] The CReMS recording of physiologic change was maintained continuously from when the cells were first seeded on the microplate through complete cellular response, which was between 48-72 hours. The test was performed at 37° C., 5% CO2 and at 75% relative humidity.

[2] = system: Patient B2 breast cancer cells; assay: as above; format: cell-based, human
Method: as §1, §2, §3, §4

[3] = system: Patient B4 cells (HER2 overexpressing breast cancer); assay: CELx Pathway Shutdown test, impedance biosensor CReMS, EGF stimulation; format: cell-based, human
Text: (§5) CReM and microplate: A 4″×6″, 96-well impedance microplate was placed into a Roche Applied Science (Indianapolis, Ind.) xCELLigence SP impedance biosensor designed to maintain constant voltage while measuring simultaneously the impedance of every well. The change in impedance for a particular well is proportional to the number of cells and type of attachment the cells have with the impedance microplate. Changes in impedance indicate a response to perturbation of these small cell populations.
(§6) Cells: Cells from Patient B1 and B4 were utilized. […] Prior to addition to the impedance microplate, the cells were removed from their growth container with versene, counted, and re-suspended in media without serum or other growth factors.
(§7) Buffers and reagents: Standard media, serum, antibiotics (e.g. penicillin, streptomycin), and other buffers were purchased and used as delivered from ATCC (Manassas, Va., USA) or Life Technologies (Grand Island, N.Y.). Additional growth factor (mature human EGF ca6KDa) was purchased from R&D Systems (Minneapolis, Minn.) and prepared in buffered cell media without growth factors or serum.
(§8) Procedure: Between 6,000-12,000 cells in each well were seeded onto the impedance microplate containing 120 uL standard media with serum. The solution was replaced with media containing no serum to synchronize the cells with respect to physiologic state and pathway stimulation. Twenty microliters of drugs were added to the no-serum media two hours in advance of pathway stimulation.

[4] = system: Patient B1 cells (HER2 overexpressing breast cancer); assay: as above; format: cell-based, human
Text: as §5, §6, §7, §8

[5] = cited from earlier work
[6] = system: Patient C2 colon cancer cells; assay: CELx Combination test, impedance biosensor CReMS; format: cell-based, human; settings: Patient C2 cells (printed Patient 2), single drug
Method: Cells: Colon cancer cells from Patients C1 and C2 were utilized and handled in the same manner as described in Example 1.
Procedure: Between 6,000-12,000 cells in each well were seeded into the impedance microplate containing 120 uL settling media with serum. The solution was replaced with media containing no serum to synchronize the cells with respect to physiologic state. […] The CReMS recording of physiologic change was maintained continuously from when the cells were first seeded on the microplate through complete cellular response, which was between 48-72 hours. The test was performed at 37° C., 5% CO2 and at 75% relative humidity.

[7] = system: patient breast cancer cell sample; assay: CELx Pathway Shutdown single drug test (Example 4), impedance biosensor CReMS; format: cell-based, human; settings: one patient breast cancer cell sample expected to be a responder
Method: The physiologic change of the cells and drugs tested was measured with an impedance biosensor CReMS and the summary output from the CReMS is recorded in FIG. 4.
Cells: Cells from Patients B1, B2, B3, B4, B5, B6, B7, C1, C2, L1, and L2 were utilized and handled in the same manner as described in Example 1.
In those experiments involving a combination of drugs, the procedures described in Example 3 were utilized. The list of patient cells and the drug tested with the cells is characterized in FIG. 4.

CC(=O)O[C@H]1C(=O)[C@@]2(C)[C@H]([C@H](OC(=O)c3ccccc3)[C@]3(O)C[C@H](OC(=O)[C@H](O)[C@@H](NC(=O)c4ccccc4)c4ccccc4)C(C)=C1C3(C)C)[C@]1(OC(C)=O)CO[C@@H]1C[C@@H]2O [paclitaxel, Paclitaxel]
CELx test prediction of patient response ([1]; Patient B1): will respond
responsiveness of test cells (decrease in CReM output compared to control cells) ([1]; Patient B1 cells, continuous recording 48-72 hours): immediate and continuous responsiveness
CELx test prediction of patient response ([2]; Patient B2): will respond
time after which the CReM output reverses (test cells begin proliferating, no longer responsive) ([2]; Patient B2 cells): roughly 24 hours
responsiveness of test cells (decrease in CReM output compared to control cells) ([2]; Patient B2 cells, continuous recording 48-72 hours): initial responsiveness

CS(=O)(=O)CCNCc1ccc(-c2ccc3ncnc(Nc4ccc(OCc5cccc(F)c5)c(Cl)c4)c3c2)o1 [lapatinib, Lapatinib]
CELx test prediction of patient response [3]: would respond
CELx test prediction of patient response ([4]; Patient B1): will respond
change (decrease) of cell index of test cells after drug ([4]; Patient B1 cells, pathway stimulated with receptor ligand (EGF), vs stimulated cells without drug): over 50%
patient responsiveness recorded by clinical reference standard ([5]; Patient B1): responsive
patient responsiveness recorded by clinical reference standard ([5]; Patient B4): responsive

CCc1c2c(nc3ccc(OC(=O)N4CCC(N5CCCCC5)CC4)cc13)-c1cc3c(c(=O)n1C2)COC(=O)[C@]3(O)CC [irinotecan, Irinotecan]
responsiveness to the individual drug [6]: responsive

COc1cc2ncnc(Nc3ccc(F)c(Cl)c3)c2cc1OCCCN1CCOCC1 [gefitinib]
response in the CReMS testing [7]: did not show a response
